# Source: patent US6518259B1, “Compositions for treating autoimmune disease” (The Regents of the University of Michigan, priority 1998, dated 2003)
# Where a SMILES comes first, the peptide text is derived from it. The star is where a group is joined. Cbz = O=C(OCc1ccccc1)*; CH2F = FC*
# Experiments:
# Type in all cases: cell-based, human
# [1] = system: EBV transformed B cell targets from RA patients; experiment: Cytolysis of EBV transformed target cells by Vγ9/Vδ2 T cells, 4 hr 51Cr release assay
# Description: Fas-mediated cell death in-vivo is thought to be triggered, primarily, by cytotoxic T cells. […] However, susceptibility to cytolysis is markedly different between the two groups when determined using standard 4 hour ^51Cr release assays. FIG. 2C is a bar graph showing the susceptibility to cytolysis by Vγ9/Vδ2 T cell clones determined in EBV transformed lines from 23 normal controls, 18 patients with RA, 6 patients with pauciarticular-onset juvenile arthritis (“pJA”), and 3 patients with autoimmune thyroiditis. Lymphoblastoid target lines from all 23 normal controls tested were efficiently killed by Vγ9/Vδ2 clones, while none of the lines from 18 RA patients were susceptible. […]
# Inhibition of Fas-mediated death signaling by SPP was also examined using γδ […]. Cytolysis of EBV transformed target cells by Vγ9/Vδ2 T cells was determined by 4 hr ^51Cr release assay (FIG. 5C) in the presence (●) or absence (∘) of 2.5 μM DMS. At the end of incubation, targets were washed and susceptibility to killing by γδ T cells was assessed.
# Additionally, pre-incubating RA targets with pertussis toxin reversed their resistance to Fas-mediated and γδ T cell-mediated killing (FIGS. 5D and 5E). […] Cell death was determined using the commercial MTS kit (Promega, Madison, Wis.). […]
# [2] = system: EBV transformed B cell lines from RA patients; experiment: Anti-Fas antibody CH-11-mediated killing of EBV transformed B cell lines, MTS kit; details: preincubation 1 μg/ml for 1 hr, CH-11 100 ng/ml over a time course, FIG. 5D
# Description: In this example, the susceptibility of lymphocytes to cell death is examined. As noted above, it is believed that prevention of immune-mediated self injury requires prompt elimination of activated lymphocytes at the end of an immune response. […] Briefly, PHA T cell lymphoblasts from 6 normal controls and 6 RA patients were established by stimulating peripheral blood mononuclear cells with 0.5 μg/ml PHA for 3 days, followed by expansion in 20 U/ml of recombinant human IL-2 (Collaborative Biomedical Products, Bedford, Mass.). Day-10 T cell lymphoblasts were incubated with 125 ng/ml of the agonist anti-Fas monoclonal antibody CH-11 (the antibody was immobilized and 1×10^5 cells per well were used). In all experiments, control mouse monoclonal IgM antibody (TEPC-183, from Sigma) was used in equivalent concentrations. Cell death was determined at different time points, using a commercial MTS kit (Promega, Madison. Wis.). Microplate wells were read by ELISA plate reader at 490 nm.
# Additionally, pre-incubating RA targets with pertussis toxin reversed their resistance to Fas-mediated and γδ T cell-mediated killing (FIGS. 5D and 5E). […] Cell death was determined using the commercial MTS kit (Promega, Madison, Wis.). […] At the end of incubation, targets were washed and susceptibility to γδ T cell killing was determined using a 4 hr ^51Cr-release assay.
# [3] = system: EBV transformed B cell lines from RA patients; experiment: Anti-Fas antibody CH-11-induced apoptosis of EBV transformed target cells, TUNEL assay; details: prior incubation of target cells (2.5 μM DMS), 8 hr CH-11 100 ng/ml, serum-free RPMI 1640, FIG. 5B
# Description: In some of the examples below, the TUNEL assay was used. TdT-mediated dUTP-biotin nick end-labeling (TUNEL) assay was performed as described [see (Gorczyca, W, et al. Leukemia 7, 659-70 (1993)]. Briefly, cells were fixed in 1% buffered formaldehyde (pH 7.4) for 15 min on ice, washed in phosphate-buffered saline (PBS) and stored at 4° C. in 70% ethanol. Subsequently, cells were resuspended in 50 μl of a solution containing: 5 unites of terminal deoxynucleotidyl transferase (Boehringer Mannheim, Indianapolis, Ind.), 2.5 mM CoCl2,0.2 M potassium cacodylate, 25 mM Tris-HCl, 0.25 mg/ml bovine serum albumin, 0.5 nmoles biotin-16-dUTP (Boehringer Mannheim Biochemicals, Indianapolis, Ind.). […] Green (b-dUTP) and red (DNA) fluorescence of individual cells were measured with an EPICS Elite Flow Cytometer (Coulter, Hialeah. Fla., USA).
# SPP, a potent derivative of sphingosine, has been recently shown to activate a pertussis toxin-sensitive G protein and to inhibit Fas-mediated cell death, Therefore, the ability of SPP to inhibit apoptosis in RA lymphocytes was investigated Apoptosis induced by 8 hr stimulation with the anti-Fas antibody CH-11 (100 ng/ml) was determined in EBV transformed target cells in the presence FIG. 5B, dashed bars) or absence (FIG. 5B, open bars) of 2.5 μM DMS in serum-free RPMI 1640 medium supplemented with insulin and transferrin. […]
# [4] = system: caspases (CPP32, PARP cleavage); experiment: Western blot of CPP32 and PARP cleavage after anti-Fas antibody stimulation, with or without caspase inhibitor; details: preincubated 1 hr with 40 μM, then 100 ng/ml anti-Fas antibody
# Description: In some examples below, Western blots were performed. For Western blot analysis, 5×10^6 cells were washed and suspended in 100 μl of lysis buffer [1% sodium dodecyl sulfate (SDS), 1 mM sodium vanadate, 10 mM Tris (pH 7.6)], and boiled for 5 min. After micro-centrifugation at 14,000 rpm, for 10 min, supernatants (cell lysates) were recovered. The protein concentration of the lysates was determined with bicinchoninic acid (BCA) protein assay reagent (Pierce). For CPP32 immunoblots, cell lysates (10-20 μg of protein per lane) were separated on 15% SDS-polyacrylamide gels under reducing conditions, transferred to polyvinylidene difluoride (PVDF) membranes (Millipore), and probed with mouse monoclonal anti-CPP32 (clone #19, IgG2a, from Signal Transduction Labs, Lexington, Ky.) followed by sheep F(ab′)2 fragment horseradish peroxidase-conjugated, anti-mouse Ig (Amersham). For PARP immunoblots, cell lysates (10 μg of protein per lane) were separated on 7.5% SDS-polyacrylamide gels, transferred to PVDF membrane, and probed with monoclonal mouse anti-human PARP antibody C2.10 (IgG1, Enzyme Systems Products Dublin, Calif.). Antibody binding was detected with an ECL detection system (Amersham).
# Briefly, cells were preincubated for 1 hr in the presence or absence of 40 μM of Z-VAD-fmk, and subsequently incubated with 100 ng/ml of the anti-Fas antibody […]. At different time points thereafter, cells were collected, lysed and a Western blot analysis performed with the relevant antibodies.
# [5] = system: RA EBV transformed target cells; experiment: Anti-Fas antibody CH-11-induced apoptosis of RA EBV transformed target cells with MEK1 inhibitor; details: 16 hr CH-11 200 ng/ml, FIG. 6
# Description: As noted above, it is not intended that the present invention be limited to any one inhibitor. In this example, resistance to Fas-mediated cell killing is shown to be reversed by preincubation of target cells with a MEK1 inhibitor. Apoptosis of RA EBV transformed target cells was induced by 16 hr stimulation with anti-Fas antibody CH-11 (200 ng/ml) in the presence (FIG. 6, black bars) or absence (FIG. 6, open bars) of 100 µM of the MEK1 inhibitor 2-(2′-amino3′-methoxyphenyl-oxanaphthalen-4-one) (PD098059).
molecule,measurement,setting,value
pertussis toxin,resistance of RA targets to γδ T cell-mediated killing,"[1]; preincubation 1 μg/ml for 1 hr, 4 hr 51Cr-release, FIG. 5E",reversed
same,resistance of RA targets to Fas-mediated killing,[2],reversed
"CCCCCCCCCCCCCCC[C@H](O)[C@@H](N)CO (racemic) [DHS, DL-threo-dihydrosphingosine]",resistance of RA targets to apoptosis by anti-Fas antibodies,[3],effectively reversed
same,resistance of RA targets to apoptosis by γδ T cells,"[1]; prior incubation of target cells (2.5 μM DMS), 4 hr 51Cr release, FIG. 5C",effectively reversed
"COC(=O)C[C@H](NC(=O)[C@H](C)NC(=O)[C@@H](NC(=O)OCc1ccccc1)C(C)C)C(=O)CF [Z-VAD-fmk, N-benzyloxycarbonyl-Val-Ala-Asp(O-methyl)-fluromethylketone] (Cbz-Val-Ala-Asp(OMe)-CH2F)",subsequent cell death after Fas ligation,[4],blocks
same,cleavage of PARP,"[4]; Western blot, FIG. 4A lower panel",blocks
same,proteolytic processing of CPP32,"[4]; Western blot, FIG. 4A upper panel",blocks
"COc1cccc(-c2cc(=O)c3ccccc3o2)c1N [PD098059, 2-(2′-amino3′-methoxyphenyl-oxanaphthalen-4-one)]",resistance to Fas-mediated cell killing,[5],reversed
